What is called IC50 is the concentration that inhibits the measured activity by half.

We go through three compounds from patent publication US9175013B2, “Fused aminodihydrothiazine derivatives” (Eisai R&D Management Co., Ltd., priority 2011, dated 2015).

The structures appear in SMILES notation. Like-named read-outs stand apart in the source and are kept apart here.

Assay [1] concerns Aβ40. The assay can be described thus: Amyloid detection: Aβ40 in rat brain and CSF after oral dosing (Wako ELISA). Type of assay: in vivo, Sprague Dawley rat. The settings on record: 10 mg/kg p.o. The procedure:
Male Sprague Dawley rats were acquired from Charles River UK Ltd. (Margate, UK) and housed according to UK Home Office guidelines. Drugs were made up to the appropriate concentrations in 0.5% methyl cellulose. Animals were dosed orally (2 mL/kg) by gavage at the doses outlined in Tables 1 to 4 below. At the time points post-dosing, specified in the Tables 1 to 4 below the animals were administered an i.p. injection of sodium pentobarbitone (approximately 330 mg/kg for terminal anaesthesia). Using a guillotine, the animals were decapitated and trunk blood collected into 15 ml Falcon tubes containing 100 IU heparin. Blood was vortexed followed by centrifugation at 6000 rpm, 4° C. for 5 minutes. Plasma was collected for DMPK and ELISA assays and stored at −80° C. until use. Brains were dissected out and divided along the midline, weighed and stored at −80° C. until further use. Amyloid Detection 100 ml of chilled 0.2% diethyl amine (DEA) in 50 mM NaCl (pH 10) was freshly prepared and 1 ml/25 mg brain tissue was added to each hemisphere (i.e. 40× brain volume). The brains were immediately homogenized using a Polytron PT 1200 for 1.5 minutes and samples left to incubate on ice for one hour after homogenisation. 3 ml of the homogenate was transferred to a polyallomer tube (Beckman #362333) and spun at 133000×g (55,000 rpm) for 45 min at 4° C. The supernatant was then neutralised to pH 8-8.3 by adding 1/10 volume 0.5M Tris/HCl, pH 6.8. The samples can be used fresh or snap frozen on dry-ice and stored at −80° C. until required for analysis The Wako Aβ40 ELISA kit (Code No. 294-62501) uses the monoclonal antibody BNT77, raised against epitope Aβ(11-28) and the monoclonal antibody BA27, which specifically detects the C-terminal portion of Aβ40. This kit is used for the quantitative determination of human or rat Aβ(1-40) and also N-terminally truncated Aβ40 species (Aβ(x-40)) in biological matrices such as tissue culture medium, tissue homogenate, CSF and plasma. For analysis, plasma and brain samples are diluted 1:1 with the standard diluent contained in the kit and CSF samples are diluted 1:8 with the standard diluent contained in the kit. The assay is carried out according to manufacturers instructions and samples are analysed in duplicate. Data is analysed using Microsoft Excel 2003 and statistical analysis is carried out using Genstat 9th Edition.

The test system of assay [2] is Aβ peptide production in rat primary neuronal culture. As to the kind of experiment: In vitro cellular assay: quantification of Aβ peptide in culture of neurons from rat fetus brain. Type of assay: cell-based, Wistar rat. The following applies: Primary cortical neuron. The procedure:
Quantification of Aβ Peptide in Culture of Neurons from Rat Fetus Brain
Primary neuronal cultures were prepared from the cerebral cortex of embryonic day 18 Wistar rats (Charles River, UK). Specifically, the embryos were aseptically removed from pregnant rats under ether anesthesia. The brain was isolated from the embryo and immersed in HBSS (Sigma Aldrich #H9269) containing 10 mM HEPES (Gibco #15630-056). The cerebral cortex was collected from the isolated brain under a stereoscopic microscope. The cerebral cortex fragments collected were enzymatically treated in an enzyme solution containing 0.05% trypsin-EDTA solution (GIBCO, #25300) at 37° C. for 20 minutes to disperse the cells. The cells were then washed twice and then gently resuspended in Neurobasal medium (Gibco #21103) supplemented with 2% B27 supplement (GIBCO #17504-044), 0.5 mM L-glutamine (GIBCO #25030), 1×N2 (GIBCO #17502-048), 100 μg/ml Pen/Strep (GIBCO 15140-122) and 5% heat inactivated FCS (PAA #A15-701). The cell dispersion was filtered through a 40-μm nylon mesh (BD Falcon #352340) to remove the remaining cell mass, and thus a neuronal cell suspension was obtained. The neuronal cell suspension was diluted with the medium above and then plated in a volume of 100 μL/well at an initial cell density of 3.25×10^5 cells/ml in poly-D-lysine coated 96-well culture plate (Greiner #655940). The plated cells were cultured in the culture plate at 37° C. in 5% CO2-95% air for 24 hrs. The total amount of the medium was replaced with ‘assay Neurobasal medium’ (as above excluding heat inactivated FCS), and then the cells were cultured for a further five days.
The drug was added to the culture plate on Day 6 of culture as follows. 8 point compound serial dilutions were generated in DMSO at a concentration of ×1000 that of the final assay concentration (FAC). Compound solutions were then prepared by adding 999 ul of ‘Assay Neurobasal media’ (as described in above section) to 1 ul of DMSO compound stock. The total amount of the medium was removed from each of the cell plate wells, and […] of ‘Assay Neurobasal media’ was added followed by […] of compound solution. The final DMSO concentration was 0.1%. […]
Cell survival was evaluated using an Alamar assay according to the following procedure. […]
Measurement of fluorescence intensity for each well was the carried out at 540/590 nm using a Pherastar plus plate reader (BMG labtech). […]
Human/Rat β Amyloid (42) ELISA Kit Wako (#290-62601) and Human/Rat P Amyloid (40) ELISA Kit Wako (#294-62501) from Wako Pure Chemical Industries, Ltd. were used for Aβ ELISA. […] The results were shown as percentage of the control groups and IC50 values for each compound were determined using four parameter logistic fit model using the XLFIT5 software package (IDBS).

Where [3] appears, read: Aβ ELISA, rat primary cortical neurons, Aβ species (x-40 or x-42) not given, read-out: IC50.

For the compound `COc1cnc(C(=O)Nc2cc(F)c(F)c([C@]34CO[C@H](CF)[C@H]3CSC(N)=N4)c2)cn1` [Example 4, N-(3-((4aS,5S,7aS)-2-amino-5-(fluoromethyl)-4a,5,7,7a-tetrahydro-4H-furo[3,4-d][1,3]thiazin-7a-yl)-4,5-difluorophenyl)-5-methoxypyrazine-2-carboxamide], in assay [1] (4 hours), the “reduction of Aβ40 in the CSF” value was 67% and the “reduction of Aβ40 in the brain” value is 51%. Moreover, in assay [1] (6 hours), the “reduction of Aβ40 in the CSF” value is listed as 63% and the “reduction of Aβ40 in the brain” value amounted to 42%. Also, the IC50 in assay [2] (setting [3]) was determined as 12 nM.
On to `COc1cnc(C(=O)Nc2ccc(F)c([C@]34CO[C@H](CF)[C@H]3CSC(N)=N4)c2)cn1` [Example 2, N-(3-((4aS,5S,7aS)-2-amino-5-(fluoromethyl)-4a,5,7,7a-tetrahydro-4H-furo[3,4-d][1,3]thiazin-7a-yl)-4-fluorophenyl)-5-methoxypyrazine-2-carboxamide], for which the “reduction of Aβ40 in the CSF” value in assay [1] (4 hours) turned out to be 85%; in assay [1] (6 hours), 69%. Moreover, the “reduction of Aβ40 in the brain” value is 63% in assay [1] (4 hours) and 65% in assay [1] (6 hours). Besides, it took 4 nM to reach half-maximal inhibition in assay [2] (Rattus norvegicus) (IC50).
On to `COc1cnc(C(=O)Nc2ccc(F)c([C@]34CO[C@H](C(F)F)[C@H]3CSC(N)=N4)c2)cn1` [Example 3, N-(3-((4aS,5S,7aS)-2-amino-5-(difluoromethyl)-4a,5,7,7a-tetrahydro-4H-furo[3,4-d][1,3]thiazin-7a-yl)-4-fluorophenyl)-5-methoxypyrazine-2-carboxamide], for which, in assay [1] (4 hours), the “reduction of Aβ40 in the CSF” value turned out to be 75% and the “reduction of Aβ40 in the brain” value came out at 58%. Moreover, in assay [1] (6 hours), the “reduction of Aβ40 in the CSF” value stood at 71% and the “reduction of Aβ40 in the brain” value was 61%. Also, the IC50 in assay [2] (setting [3]) stood at 4 nM.
